Data as given in patent publication US20260232640A1, “COMPOSITIONS AND METHODS FOR TREATING SPINAL MUSCULAR ATROPHY” (NMD Pharma A/S, priority 2023, published 2026).
Entries after “also recorded” stand apart in the source; their conditions may differ.

Tests used:
[1] = system: SMA (delta-7 mouse) animals; assay: RotaRod test (latency to fall) in SMA model; type: in vivo; settings: 20 mg/kg IP; for latency to fall / running test, result in words: before vs 90 min after dosing
Description: (§1) The employed model of SMA is a genetic knock-in model of severe SMA (“delta-7 mouse”). This model was developed in The Ohio State University laboratories (Foust et al, 2010). In this study the mice were administered at post-natal day 2 via intracerebroventricular injection 40 μg of morpholino ASOs directed against ISS-N1 to increase full-length SMN protein production from SMN2 to allow the animal to live to about 90 days. Five animals aged 67 days were investigated in a study where 20 mg/kg CIC-1 inhibitor ((S)-2-(4-bromo-2-ethynylphenoxy)propionic acid) in phosphate buffered saline was administered intraperitoneally and subjected to a rotarod test battery 90 minutes after injection (single intervention) and CMAP recording 120 min after injection.
RotaRod (Harward apparatus, MA, USA) were used to explore the physical capabilities of the SMA mouse model in vivo and examined coordination ability of legs and endurance on a horizontal accelerating, rotating rod. The RotaRod test was designed to start at a low revolution rate of 5 rpm of the horizontal roll and accelerate gradually to 45 rpm over 300 seconds (maximal test time). Animals were acclimatized and trained for several weeks prior to intervention, to avoid training bias. […] This was performed prior to dosing, and then 90 min after IP dosing of 20 mg/kg of the CIC-1inhibitor.

[2] = system: SMA (delta-7 mouse) animals; assay: Compound Muscle Action Potentials (CMAP) decrement, repeated sciatic nerve stimulation (EMG); type: in vivo; settings: for CMAP decrement, result in words: 10 to 50 Hz, before vs after treatment, significant from 20 to 50 Hz only; for CMAP Decrement % (10th/1st Stimulation): 20 mg/kg IP, 120 min after dosing
Description: as §1
Compound Muscle Action Potentials (CMAP) measurements were performed as previously described (Arnold et al, 2015). Briefly, the right sciatic nerve was stimulated with a pair of insulated 28-gauge monopolar needles (Teca, Oxford Instruments Medical, NY) placed in proximity to the sciatic nerve in the proximal hind limb. Recording electrodes consisted of a pair of fine ring wire electrodes (Alpine Biomed, Skovlunde, Denmark). The active recording electrode was placed distal to the knee joint over the proximal portion of the triceps surae muscle and the reference electrode over the metatarsal region of the foot. A disposable strip electrode (Carefusion, Middleton, WI) was placed on the contralateral hind limb to serve as the ground electrode. Data collection and analysis was performed using Cadwell Sierra Summit EMG unit (Cadwell laboratories, Kennewick, Washington, USA). Animals were stimulated in trains of 10 pulses of 50 μs at supramaximal voltage at 10, 20, 30, 40 and 50 Hz, with 10 seconds between stimulation trains.
This was performed prior to dosing, and then 120 min after IP dosing of 20 mg/kg of the CIC-1inhibitor. The relative amplitude from the 10th to the 1st stimulation is denoted as decrement, and a larger negative number designates a larger deficit/decrement, indicating a larger transmission failure from nerve to muscle.

[3] = system: SMA (delta-7 mouse) animals; assay: Tolerability after intraperitoneal injection in SMA model; type: in vivo; settings: 20 mg/kg intraperitoneally, five animals
Description: as §1

[4] = Tablet dissolution (USP2 paddles, HPLC); type: physicochemical; settings: immediate release tablets; USP2 paddles 75 RPM, 900 ml dissolution media pH 6.8, 37° C.; after a maximum of 60 minutes
Description: Tablet dissolution was determined as follows.
Dissolution Media pH 6.8 was prepared by dissolving 27.3 g Na2HPO4·2H2O and 4.9 g Citric Acid in 1 L Milli-Q water. The pH was measured and adjusted if necessary to pH 6.8.
900 mL of dissolution media pH 6.8 was accurately transferred into each dissolution vessel. The apparatus was assembled, and the dissolution media was heated to 37° C.±0.5° C. The T=0 point was extracted from each vessel prior to dropping the tablets into the dissolution vessels. One tablet was gently dropped into each dissolution vessel, and rotation of the paddle was immediately started. Samples were taken that the sample extraction timepoints and analysed using the HPLC method.

[5] = Phase I clinical trial Part A, single dose pharmacokinetics in plasma; type: in vivo, human
Description: • Collect blood (3 mL recommended) onto wet ice (K2EDTA tubes) • Immediately cool blood on crushed wet ice for maximum of 30 minutes • Harvest plasma as quickly as possible using refrigerated centrifuge by centrifuging at 2000 g for 10 minutes at 4° C. • Keep plasma on wet ice and immediately stabilise with 1:1 (v/v) addition of Water: Orthophosphoric Acid (100:2 v/v) prepared using ≥85% orthophosphoric acid and deionised water (e.g. 750 μL plasma+750 μL stabiliser). • Mix sample thoroughly. • Keep the stabilised plasma on wet ice during subsequent steps. • Divide the stabilised plasma into 5×250 μL aliquots in plastic cryotubes. • Store aliquots at nominal −70° C./−80° C. promptly.
• 1. Thaw frozen calibration standards, QC samples, blank matrix and study samples on wet ice. • 2. Vortex-mix all samples thoroughly. • 3. On wet ice aliquot 150 μL of calibration standards, QC samples, study samples, and blanks into a 2 mL 96-well plate. For the reagent blank add the same volume of Water. • 4. On wet ice add 25 μL of Methanol:Water (50:50) to wells containing blanks and the same volume of ISTD intermediate solution to all other wells. • 5. On wet ice add 125 μL of Water to each well. […] Condition SPE plate with 250 μL of Water. • 9. Load 250 μL of the sample onto the SPE plate (aspirate from the rim of the cone to avoid any debris collected at the bottom of the well). […]

[6] = system: healthy volunteers; assay: Phase I clinical trial Part A, tolerability/safety (adverse events); type: in vivo, human

Question: Which results are given for `C#Cc1cc(Br)ccc1O[C@@H](C)C(=O)O` [CIC-1 inhibitor, (S)-2-(4-bromo-2-ethynylphenoxy)propionic acid]?
Answer: Time for remaining on rotor rod ([1]; 90 min after dosing, delta-7 mice aged 67 days, pre-treatment 62.2 ± 40.2): 81 ± 63.2 s; latency to fall / running test, result in words [1]: All animals were able to stay on the rotating rod longer after treatment; also recorded: performed better in the running test; latency to fall / running test, result in words ([1]; listed as CIC-1inhibitor): All animals were able to stay on the rotating rod longer after treatment; CMAP decrement, result in words [2]: only minimal decrement visible; also recorded: less pronounced in all animals at all frequencies; also recorded: reduced decrement in EMG (RNS) at all tested frequencies; CMAP decrement, result in words ([2]; listed as CIC-1inhibitor): less pronounced in all animals at all frequencies; improvement in decrement ([2]; at 50 Hz, mouse model of SMA): 75%; CMAP Decrement % (10th/1st Stimulation) ([2]; stimulation frequency 10 Hz): −7.0 ± 5.4%; CMAP Decrement % (10th/1st Stimulation) ([2]; stimulation frequency 20 Hz): −8.1 ± 5.1%; CMAP Decrement % (10th/1st Stimulation) ([2]; stimulation frequency 30 Hz): −8.4 ± 6.0%; CMAP Decrement % (10th/1st Stimulation) ([2]; stimulation frequency 40 Hz): −8.9 ± 4.9%; CMAP Decrement % (10th/1st Stimulation) ([2]; stimulation frequency 50 Hz): −7.7 ± 6.5%; adverse reactions to the compound injection [3]: did not exhibit any adverse reactions to the compound injection, nor any signs of muscle stiffness

Question: With `C[C@H](Oc1ccc(Br)cc1-c1ccon1)C(=O)O` [NMD670, (2S)-2-[4-bromo-2-(1,2-oxazol-3-yl)phenoxy]propanoic acid] as the compound, how does the “NMD670 released from the tablets” value [4] read?
Answer: Not less than 80%

Question: And the half-life ([5]; plasma, oral, human, stated in rationale for washout period)?
Answer: ~4 h

Question: What about the “T1/2 (mean ± SD, hr)” value ([5]; single oral dose 100 mg, healthy male subjects) of the same compound?
Answer: 5.07 ± 0.63 h

Question: What about the “adverse event that stopped dose escalation” value ([6]; 1600 mg, dose level 7, spontaneously and fully resolved within hours) of the same compound?
Answer: myotonia of moderate intensity observed in one subject

Question: And the subject discontinuations ([6]; Part A)?
Answer: no subject discontinuations

Question: And the “total number of AEs reported” value ([6]; Part A, 35 healthy subjects, single doses)?
Answer: 70

Question: What about the “intensity of AEs” value ([6]; except one AE of myotonia (1600 mg) and tooth extraction (unrelated, 50 mg), moderate) of the same compound?
Answer: Most AEs were mild

Question: What about the “dose-related AE” value ([6]; highest dose levels tested (1200 mg and 1600 mg), single dose) of the same compound?
Answer: transient myotonia

Question: And the “number of AEs at least possibly drug related” value ([6]; of 70 AEs, Part A)?
Answer: 47

Question: And the “share of AEs at least possibly drug related” value ([6]; of 70 AEs, Part A)?
Answer: 67%

Question: What about the “serious or severe adverse effects” value ([6]; single doses 50 to 1600 mg, 35 healthy subjects) of the same compound?
Answer: No serious or severe adverse effects were reported
